From patent publication US20210100905A1, “APPLICATION OF COMPOUND OR TRADITIONAL CHINESE MEDICINE EXTRACT IN PREPARATION OF NUCLEIC ACID DELIVERY AGENT, AND RELATED PRODUCTS” (INSTITUTE OF BASIC MEDICAL SCIENCES CHINESE ACADEMY OF …, priority 2018, published 2021)
Entries after “also recorded” stand apart in the source; their conditions may differ.

Experiments:
[1] = system: A549 cell (human lung adenocarcinoma cell); assay: In vitro delivery of lipid nucleic acid mixture, RT-qPCR of intracellular small RNA; type: cell-based; settings: single lipid prepared by boiling or reverse evaporation method; RNA 100 nM; FIGS. 76, 91, 96, 99, 104, 106, 107
Procedure: 3.1 NCI-N87 cell (gastric cancer cell), MRC-5 cell (lung fibroblast), A549 cell (lung cancer cell) were cultured to logarithmic growth phase, and then plated to a six-well plate at cell density of 1×10^6/2 mL medium/well; MRC-5 cell was cultured in Eagle's MEM medium (MEM, Gibco); A549 cell was cultured in Ham's F-12 medium (HyClone); NCI-N87 cell was cultured in RPMI-1640 medium (HyClone); followed by incubation overnight at 37° C., and the follow-up experiments were performed after the cells were attached to the walls.
3.3 After co-incubation with the small RNA for 3 hours, the cells were washed 2-3 times with PBS. The cells were harvested with TRIzol lysis buffer, and the total RNA was extracted. The abundance of small RNA that entered cells was detected by RT-qPCR, and the localization of RNA was detected by fluorescence in situ hybridization; protocols of each detection method were as follows:
1) The sRNA was reverse transcribed to cDNA: Reverse Transcription Kit (High-Capacity cDNA Reverse Transcription Kits, Applied Biosystems, cat. No. 4368813) was used to reverse transcribe sRNA into cDNA by stem-loop method, and the reverse transcription system was as follows: RNA template (150 ng/μl) 10 μl, 10×RT buffer, 2.0 μl, 25× dNTP Mix (100 mM) 0.8 μl, U6 RT stem-loop primer 2.0 μl, HJT-sRNA-RT-m7 stem-loop primer 2.0 μl, MultiScribe™ reverse transcriptase 1.0 μl, RNase inhibitor 1.0 μl, nuclease-free H2O 1.2 μl, loaded into a PCR reactor after brief centrifugation, the reaction conditions were as follows: (1) 25° C., 10 min; (2) 37° C., 120 min; (3) 85° C., 5 min; (4) 4° C., termination of the reaction. 20 μl RNase-free ddH2O was added to make up the final volume to 40 μl after the reaction. The stem-loop primer used in the reverse transcription process was synthesized by Beijing Tsingke Biotechnology Co., Ltd.
2) Quantitative PCR amplification reaction: the qPCR reaction system has a total volume of 10 μl, containing: 5 μL 2×SYBR Green Master Mix, 0.5 μl forward primer ([…]), 0.5 μl reverse primer (10 μM), 1 μl cDNA by reverse transcription, 3 RNase-free dH2O. LightCycler 480 fluorescence quantitative PCR instrument was used, and the PCR reaction conditions were: 95° C. for 5 min for pre-denaturation, followed by PCR amplification cycle: (1) 95° C., 10 s; (2) 55° C., 10 s; (3) 72° C. , 20 s; a total of 40 cycles; 40° C. for 10 s in the end to cool down. Both the forward and reverse primers of the amplification reaction were designed and synthesized by Beijing Tsingke Biotechnology Co., Ltd.
3) The relative expression level was calculated by 2-ΔCt method.
100 μl lipid in diethyl ether solution was prepared, and grouped according to the lipid numbers shown in Table 1 (the lipid concentrations are shown in the table below). To the lipid solution was added 20 μl nucleic acid solution (HJT sRNA or siRNA) at the volume ratio of 5:1, and sonicated for after 3 min. The diethyl ether was removed by evaporation at 55° C., and then 100 μl DEPC water was added for hydration to give nucleic acid lipid mixture.
100 μL of the nucleic acid solution (HJT sRNA or siRNA) was added to 2-5 μL of the lipid in chloroform (the concentration was shown in Table 1), mixed, and heated at 80-100° C. for 15-30 min to give nucleic acid lipid mixture.
3.1.1 MRC-5 cell (pulmonary embryonic fibroblast), A549 cell (human lung adenocarcinoma cell), Caco-2 cell (human colon adenocarcinoma cell) (purchased from the Cell Resource Center of the Institute of Basic Medical Sciences, Chinese Academy of Medical Sciences) were cultured to logarithmic growth phase, then plated into 12-well plates at a cell density of 6×10^5/1 mL medium/well; MRC-5 and Caco-2 cells were cultured in Eagle's MEM medium (MEM, Gibco); A549 cells were cultured in Ham's F-12 medium (HyClone); followed by incubation overnight at 37° C., and the follow-up experiments were performed after the cells were attached to the walls. […]

A549 cells = assay: Digital PCR (ddPCR) detection of the efficiency of nucleic acid delivery by lipid; type: cell-based, human; settings: boiling or reverse evaporation method; samples after 6 hours (No. 39: reverse evaporation, 6 and 12 hours)
Source text: 2.1 Experimental materials: A549 cells were purchased from the Cell Center of the Institute of Basic Medical Sciences, Chinese Academy of Medical Sciences, TRIzol lysis buffer was purchased from Sigma, High capacity cRNA Reverse Transcription Kit was purchased from ABI, USA, and the digital PCR related reagents were purchased from Bio-Rad USA.
(§1) 2.2 Experimental method: the total cellular RNA was collected and extracted by TRIzol lysis buffer according to the above methods, and reverse transcribed to cDNA using High capacity cRNA Reverse Transcription Kit, and the cDNA from different groups was subject to digital PCR reaction. Refering to the QX200 Droplet Reader and QuantaSoft Software manual for the protocols, the results were analyzed using QuantaSoft software.
as §1, with “method:” for “method: the”, “total” for “total cellular”, “method,” for “methods,”, “subjected” for “subject”, “Refer” for “Refering”, “protocols;” for “protocols,”
(§2) 2.2 Experimental method: Total RNA was collected and extracted by TRIzol lysis buffer according to the above method, and reverse transcribed to cDNA using TaqMan™ MicroRNA Reverse Transcription KitHigh, and the cDNA from different groups was subjected to digital PCR reaction. Refer to the QX200 Droplet Reader and QuantaSoft Software manual for the protocols; the results were analyzed using QuantaSoft software.
as §2, with “reversed” for “reverse transcribed”, “High capacity cRNA” for “TaqMan™ MicroRNA”, “Kit,” for “KitHigh,”

[2] = In vivo delivery of single-stranded sRNA by single lipid, gavage (Example 11); design: species or system C57 mice; settings: FIGS. 108, 112-115; oral (gavage), 10 μL lipid, sRNA 1 nmol each, heating method, 12 hours; vs POPC and Lipofectamine RNAiMAX
Procedure: 1. Experimental animals: C57 mice, male, approximately 6 weeks old.
2. Manufacture of lipid mixture: the prepration was conducted on the basis of a dose of 10 μ1 lipid-1 nmol sRNA per mouse as follows: dissolved 1 nmol of each sRNA in 500 μl DEPC water, added 10 μl of the corresponding lipid, pipette to mix thoroughly, and then naturally cooled down after water bath for 15 min at 90° C., and administered via gavage.
1) Tissue sampling and extraction of RNA: 6 hours after gavage in mice, took 500 μl of blood from the eyeball, added 1.5 ml Trizol Reagent LS to thoroughly mix and lyse, added 3 ml Trizol Reagent (purchased from Invitrogen) to the tissue samples and homogenized until complete lysis. Tissues sampled: live/stomach/small intestine.
2) Reverse transcription of sRNA to cDNA: Reverse Transcription Kit (High-Capacity cDNA Reverse Transcription Kits, Applied Biosystems, cat. no. 4368813), was used to reverse transcribe the total RNA to cDNA, and the reverse system was as follows: template RNA (150 ng/μL) 10 μL, 10× RT buffer, 2.0 μL, 25× dNTP Mix (100 mM) 0.8 μL, random primers 2.0 μL, the Multi Scribe™ reverse Transcriptase 1.0 μL, RNase inhibitor 1.0 μL, nuclease-free H2O 3.2 μL. After a brief centrifugation, the reaction was loaded in a PCR reactor. The reaction conditions were as follows: (1) 25° C., 10 min; (2) 37° C., 120 min; (3) 85° C., 5 min; (4) 4° C., termination of the reaction. After the reaction, 20 μL RNase-free ddH2O was added to make up the final volume to 40 μL.
LightCycler 480 fluorescence quantitative PCR instrumentwas used, and the PCR reaction conditions were: 95° C. , 5 min for pre-denaturation, followed by the PCR amplification cycle: (1) 95° C., 10 s; (2) 55° C., 10 s; (3) 72° C., 20 s; a total of 40 cycles; 40° C. for 10 s in the end to cool down. The forward primer and reverse primer of the amplification reaction were designed and synthesized by Beijing Qing Ke New Industrial Biotechnology Co., Ltd. (U6 F primer: GCGCGTCGTGAAGCGTTC (SEQ ID NO: 23), U6 R primer: GTGCAGGGTCCGAGGT (SEQ ID NO: 24)).
3) The relative expression amount was calculated by the 2-ΔCt method.
5) Treatment group of single lipid and nucleic acid mixture: a mixture of 10 μL of single lipid (No. 41) with single-stranded sRNA mixure solution (PGY-sRNA-23, PGY-sRNA-26 and PGY-sRNA-32, 1 nmol each) was treated by heating method and then given to mice via intragastric administration.
2. 12 hours after intragastric administration, the blood was taken from the eyeball, and various tissues (liver/stomach/small intestine) was sampled. TRIzol was used for full lysis and the RNA was extracted to detect the amount of entry.

SMILES | delivery of HJT-sRNA-m7 double-stranded RNA into A549 cells (real-time PCR) [1] | delivery of HJT-sRNA-m7 dsRNA into A549 cells (ddPCR) (A549 cells) | delivery of sRNA single-stranded nucleic acid into mouse blood [2]
CCCCCC/C=C\CCCCCCCCCC(=O)O[C@H](COC(=O)CCCCCCC/C=C\CCCCCC)COP(=O)(O)OCCN [No. 39, (2-aminoethoxy) [(2R)-3-[(9Z)-hexadec-9-enoyloxy]-2-[(11Z)-octadec-11-enoyloxy]propoxy] phosphinic acid] | delivered double-stranded RNA into A549 cells | could effectively deliver HJT-sRNA-m7 dsRNA into A549 cells | 
CCCCCCCCCCCCCCCC(=O)OCC(COP(=O)(O)OCCN)OC(=O)CCCCCCCCCCCCCCC (stereo not drawn) [No. 71, 1,2-Dipalmitoyl-sn-Glycero-3-Phosphatidyl-ethanolamine] |  |  | could effectively deliver sRNA single-stranded nucleic acid into mouse blood via oral administration; also recorded: the delivery effect was better than POPC and Lipofectamine RNAiMAX
